From publication PMC10686834, “Targeting myeloid chemotaxis to reverse prostate cancer therapy resistance” (Nature, 2023)

What was measured:
CYP2C19 = system: CYP2C19; parameters: method as in AZD5069 Investigator Brochure (IB); details: at concentrations of up to 100 μmol/L; ref AZD5069 Investigator Brochure (IB); cited from earlier work
[1] = system: CD11b+HLA-DRloCD15+CD14− myeloid cells; assay: Hyperplex IF of paired pre- and on-treatment mCRPC biopsies: intratumour immune cell density; assay type: in vivo, human
Method: Specific pharmacokinetic collection time points are listed in the study protocol. Pharmacokinetic parameters were calculated using non-compartmental analysis (Phoenix v.8.1, Certara). Fresh tumour needle core biopsies from matched disease sites (lymph node, bone and soft tissue) were collected at baseline (within 1 week of treatment commencement) and approximately 2 weeks after starting AZD5069 in patients when this was deemed safe and feasible. Tumour biopsies were obtained from 18 patients under computerized tomography or ultrasound guidance by an experienced interventional radiologist (N.T.). […] One patient had only a baseline tumour biopsy. Two patients underwent on-treatment biopsies after 4 weeks. Immediately after biopsy, tumour samples were immersed in 10% neutral-buffered formalin for 24 hours. Samples were processed through paraffin wax for histologic examination. […] Baseline FFPE samples were analysed by IHC, and pre- and post-treatment FFPE biopsies were analysed by IF and targeted RNA profiling using HTG EdgeSeq. […]
The hyperplex IF protocol template was generated using the COMET Control Software (v.0.70.0.1, Lunaphore Technologies), and reagents were loaded onto the device to carry out the sequential IF (seqIF) protocol. […] Nuclear signal was detected with DAPI (No. 62248, dilution 1:1,000, Thermo Fisher Scientific) by dynamic incubation of 2 min. […]

CACO-2 cells = system: CACO-2 cells; parameters: method as in AZD5069 Investigator Brochure (IB); details: at 0.85 μmol/L, ref AZD5069 Investigator Brochure (IB); cited from earlier work

C[C@@H](Oc1cc(NS(=O)(=O)N2CCC2)nc(SCc2cccc(F)c2F)n1)[C@@H](O)CO [AZD5069]
inhibition of CYP2C19 (CYP2C19): not an inhibitor | density of other immune cells in CRPC biopsies [1]: did not significantly alter the density of other immune cells | density of CD11b+HLA-DRloCD15+CD14− myeloid cells in CRPC biopsies ([1]; most patients treated with AZD5069 >40 mg BD, approximately 2 weeks after starting treatment): reduced the density | efflux ratio (CACO-2 cells): 57
